Test results as given in article PMC3563422 (Bioorganic & medicinal chemistry, 2012).

Columns and labels:
Format in all cases: biochemical
[1] = target: T1, WNV NS2B/NS3pro (West Nile virus, UniProt Q9Q6P4); experiment: In vitro WNV NS2B/NS3pro protease inhibition assay; settings: screened at 25 μM
[2] = target: DENV2 NS2B/NS3pro (Dengue virus type 2, UniProt P14340); experiment: In vitro DENV2 NS2B/NS3pro protease inhibition assay; settings: screened at 25 μM
[3] = target: Dengue virus protease (Dengue virus type 2, UniProt P14340); experiment: Kinetics analysis of DENV NS2B/NS3pro inhibition
Chain of Dengue virus protease (P14340 1476-1653): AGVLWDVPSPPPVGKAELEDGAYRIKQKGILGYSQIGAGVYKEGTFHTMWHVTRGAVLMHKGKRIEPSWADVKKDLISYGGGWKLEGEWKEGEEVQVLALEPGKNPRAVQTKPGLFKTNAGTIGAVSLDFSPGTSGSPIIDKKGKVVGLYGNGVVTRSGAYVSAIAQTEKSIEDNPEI

[4] = target: T1, WNV NS2B/NS3pro; experiment: Kinetics analysis of WNV NS2B/NS3pro inhibition; settings: for kcat of tetra-peptide substrate: 37 °C, WNV NS2B/NS3pro 28 nM

T1 sequence (Q9Q6P4 1506-1683): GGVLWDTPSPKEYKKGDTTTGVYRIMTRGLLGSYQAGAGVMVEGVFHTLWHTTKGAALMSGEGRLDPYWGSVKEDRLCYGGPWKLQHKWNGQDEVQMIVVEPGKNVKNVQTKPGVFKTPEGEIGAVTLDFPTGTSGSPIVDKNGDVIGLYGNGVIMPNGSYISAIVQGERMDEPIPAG
Chain of DENV2 NS2B/NS3pro (P14340 1476-1653): as the sequence (P14340 1476-1653) above

## O=C(NCc1cn(CSc2ccccc2)nn1)Nc1ccc(C(=O)Nc2ccc(Oc3ccccc3)cc2)cc1 [Compound 7a]
[1]
  activity against WNV NS2B/NS3pro (screen): inactive
[2]
  activity against DENV NS2B/NS3pro (screen): inactive

## O=C(NCc1cn(Cc2ccc(F)cc2)nn1)Nc1ccc(C(=O)Nc2ccc(Oc3ccccc3)cc2)cc1 [Compound 7n]
[3]
  Ki: 8.77 µM
[3]; from kinetics data
  mode of inhibition of Dengue virus protease: competitive
[4]
  Ki: 5.55 µM
[4]; [7n] = 1 μM
  kcat of tetra-peptide substrate: 0.059 ± 0.0014 s⁻¹
[4]; [7n] = 3 μM
  kcat of tetra-peptide substrate: 0.062 ± 0.0018 s⁻¹
[4]; [7n] = 5 μM
  kcat of tetra-peptide substrate: 0.055 ± 0.0020 s⁻¹
[4]; from kinetics data
  mode of inhibition of West Nile virus protease: competitive

## O=C(NCc1cn(Cc2ccccc2)nn1)Nc1cccc(C(=O)Nc2cccc(Oc3ccccc3)c2)c1 [Compound 8f]
[1]
  activity against WNV NS2B/NS3pro (screen): inactive
[2]
  activity against DENV NS2B/NS3pro (screen): inactive
